# Measurements as given in US11466044B2 (WAYNE STATE UNIVERSITY, priority 2017, dated 2022).
# Read-outs that look alike come from different tables or passages of the source.
# Columns and labels:
# MRSA = assay: MIC by broth microdilution, MRSA isolates; type: cell-based; details: for MIC AG038 MRSA: clinical isolate AG038; for MIC AG039 MRSA AAC(6′)-I ANT(4′)-I: clinical isolate AG039, AAC(6′)-I ANT(4′)-I; for MIC AG042 MRSA AAC(6′)-I ANT(4′)-I APH(2′): clinical isolate AG042, AAC(6′)-I ANT(4′)-I APH(2′); for MIC AG044 MRSA: clinical isolate AG044
# E coli wild type = assay: MIC by broth microdilution, wild type E coli; type: cell-based; details: for MIC AG001 E. coli WT: clinical isolate AG001, WT; for MIC AG055 E. coli WT: clinical isolate AG055, WT
# P aeruginosa = assay: MIC by broth microdilution, P aeruginosa isolates; type: cell-based, Pseudomonas aeruginosa; details: for MIC AG031 P. aer. APH(3′)-II: clinical isolate AG031, APH(3′)-II; for MIC AG032 P. aer. APH(3′)-II: clinical isolate AG032, APH(3′)-II
# [1] = system: E coli carrying specific resistance determinants; assay: MIC by broth microdilution, E coli carrying specific resistance determinants; type: cell-based; details: for MIC AG003 E. coli AAC(3)-II: clinical isolate AG003, AAC(3)-II
# [2] = system: wild type bacterial ribosomes; assay: in-vitro translation assay, bacterial ribosomes; type: biochemical
# Description: (§1) The antiribosomal activity of these compounds was investigated with cell-free translation assays using both wild type bacterial ribosomes and hybrid ribosomes carrying eukaryotic decoding A sites enabling the prediction of selectivity.
# [3] = system: cytosolic ribosome (human chimeric); type: biochemical
# Description: as §1
# [4] = system: mitochondrial ribosome (human chimeric); type: biochemical
# Description: as §1
# [5] = system: rabbit reticulocyte ribosomes; assay: in-vitro translation assay, rabbit reticulocyte ribosomes; type: biochemical; details: mammalian cytosolic ribosomes (rabbit)
# [6] = system: Klebsiella pneumonia AG215; assay: MIC by broth microdilution, Klebsiella pneumonia; type: cell-based; details: strain AG215 Klebsiella pneumonia
# [7] = system: Acinetobacter baumannii pittii AG225; assay: MIC by broth microdilution, Acinetobacter baumannii; type: cell-based; details: strain AG225 Acinetobacter baumannii pittii
# [8] = system: Enterobacter cloacae AG290; assay: MIC by broth microdilution, Enterobacter cloacae; type: cell-based; details: strain AG290 Enterobacter cloacae
# M. smegmatis SZ380 = assay: MIC by broth microdilution, M. smegmatis; details: strain SZ380 Mycobacterium smegmatis
# [9] = system: A1555G mutant mitochondrial ribosome (human chimeric); assay: in-vitro translation assay, human chimeric ribosomes, A1555G mutant mitochondrial decoding site; type: biochemical; details: human mitochondrial decoding site with A1555G point mutation; read-out: IC50 Mitoch. A1555G
# Description: as §1
# [10] = Mycobacterium smegmatis ribosomes, read-out: IC50 Bacterial
# [11] = ribosomes with a human cytosolic decoding site, read-out: IC50 Cytosolic
# [12] = ribosomes with a human mitochondrial decoding site, read-out: IC50 Mitoch.
smiles,measurement,setting,value
"NC[C@@H]1O[C@H](O[C@H]2[C@@H](O)[C@H](O[C@@H]3[C@@H](O)[C@H](N)C[C@H](N)[C@H]3O[C@H]3O[C@H](CO)[C@@H](O)C[C@H]3N)O[C@@H]2CO)[C@H](N)[C@@H](O)[C@@H]1O [Lividomycin B, lividomycin B, reference compound]",MIC AG038 MRSA,MRSA,4 µg/mL
same,MIC AG039 MRSA AAC(6′)-I ANT(4′)-I,MRSA,>128 µg/mL
same,MIC AG042 MRSA AAC(6′)-I ANT(4′)-I APH(2′),MRSA,>128 µg/mL
same,MIC AG044 MRSA,MRSA,4 to 8 µg/mL
same,MIC50 MRSA AG38,"MRSA; strain AG38, Table 1 (Example 1)",4 µg/mL
same,MIC50 MRSA AG39,"MRSA; strain AG39, Table 1 (Example 1)",>128 µg/mL
same,MIC50 MRSA AG42,"MRSA; strain AG42, Table 1 (Example 1)",>128 µg/mL
same,MIC50 MRSA AG44,"MRSA; strain AG44, Table 1 (Example 1)",4 to 8 µg/mL
same,MIC E coli AG006 wt,"E coli wild type; AG006 wt, Table 2 (Example 1)",1 to 2 µg/mL
same,MIC E coli AG102 wt,"E coli wild type; AG102 wt, Table 2 (Example 1)",2 µg/mL
same,MIC E coli AG160 wt,"E coli wild type; AG160 wt, Table 2 (Example 1)",4 µg/mL
same,MIC WT,"E coli wild type; WT, Table 3 (Example 1)",2 µg/mL
same,MIC AG001 E. coli WT,E coli wild type,4 µg/mL
same,MIC AG055 E. coli WT,E coli wild type,2 µg/mL
same,MIC AG160 E. coli WT,"E coli wild type; clinical isolate AG160 WT, Table 2 (Example 4)",4 µg/mL
same,MIC pH430 E. coli WT,"E coli wild type; engineered strain pH430 WT, Table 2 (Example 4)",2 μg/ml
same,MIC50 E coli AG01,"E coli wild type; strain AG01, Table 1 (Example 1)",16 µg/mL
same,MIC50 E coli AG03,"E coli wild type; strain AG03, Table 1 (Example 1)",8 to 16 µg/mL
same,MIC50 E coli AG55,"E coli wild type; strain AG55, Table 1 (Example 1)",16 µg/mL
same,MIC AG212 E. coli,E coli wild type; strain AG212 E. coli (ATCC25922),4 µg/mL
same,MIC AG031 P. aer. APH(3′)-II,P aeruginosa,16 µg/mL
same,MIC AG032 P. aer. APH(3′)-II,P aeruginosa,>128 µg/mL
same,MIC50 P aeruginosa AG31,"P aeruginosa; strain AG31, Table 1 (Example 1)",16 µg/mL
same,MIC50 P aeruginosa AG32,"P aeruginosa; strain AG32, Table 1 (Example 1)",>128 µg/mL
same,MIC50 P aeruginosa AG33,"P aeruginosa; strain AG33, Table 1 (Example 1)",128 µg/mL
same,MIC50 P aeruginosa AG86,"P aeruginosa; strain AG86, Table 1 (Example 1)",128 µg/mL
same,MIC AG220 P. aerugin,P aeruginosa; strain AG220 Pseudomonas aeruginosa ATCC27853,4 µg/mL
same,MIC E coli AG007 ANT(3″) AAC(3)-I,"[1]; AG007 ANT(3″) AAC(3)-I, Table 2 (Example 1)",4 µg/mL
same,MIC E coli AG103 ArmA,"[1]; AG103 ArmA, Table 2 (Example 1)",16 µg/mL
same,MIC E coli AG163/164 APH(3′)-Ia,"[1]; AG163/164 APH(3′)-Ia, Table 2 (Example 1)",>128 µg/mL
same,MIC E coli AG166 APH(3′)-IIa,"[1]; AG166 APH(3′)-IIa, Table 2 (Example 1)",4 to 8 µg/mL
same,MIC APH(3)-VI,"[1]; APH(3)-VI, Table 3 (Example 1)",2 µg/mL
same,MIC APH(3′)-I,"[1]; APH(3′)-I, Table 3 (Example 1)",>64 µg/mL
same,MIC APH(3′)-II,"[1]; APH(3′)-II, Table 3 (Example 1)",2 µg/mL
same,MIC APH(3′)-III,"[1]; APH(3′)-III, Table 3 (Example 1)",>64 µg/mL
same,MIC AG003 E. coli AAC(3)-II,[1],4 µg/mL
same,MIC AG163 E. coli APH(3′)-I,"[1]; clinical isolate AG163 APH(3′)-I, Table 2 (Example 4)",>128 µg/mL
same,MIC AG166 E. coli APH(3′)-II,"[1]; clinical isolate AG166 APH(3′)-II, Table 2 (Example 4)",4 to 8 µg/mL
same,MIC AG037 E. coli APH(3′)-III,"[1]; engineered strain AG037 APH(3′)-III, Table 2 (Example 4)",>128 µg/mL
same,MIC pH421 E. coli APH(3′)-I,"[1]; engineered strain pH421 APH(3′)-I, Table 2 (Example 4)",>64 μg/ml
same,MIC pH422 E. coli APH(3′)-II,"[1]; engineered strain pH422 APH(3′)-II, Table 2 (Example 4)",2 μg/ml
same,MIC pH423 E. coli APH(3′)-VI,"[1]; engineered strain pH423 APH(3′)-VI, Table 2 (Example 4)",2 μg/ml
same,IC50,[2]; [10],0.04 µM
same,IC50,"[2]; bacterial ribosome, Table 3 (Example 1), read-out: IC50 Bac",0.04 µM
same,IC50,"[3]; cytosolic, Table 3 (Example 1), read-out: IC50 Cyt",53 µM
same,IC50,[3]; [11],53 µM
same,IC50,"[4]; mitochondrial, Table 3 (Example 1), read-out: IC50 Mit",109 µM
same,IC50,[4]; [12],109 µM
same,IC50,[5],25 µM
same,MIC AG215 K. pneumon,[6],2 µg/mL
same,MIC AG225 A. baumannii,[7],4 µg/mL
same,MIC AG290 E. cloacae,[8],2 µg/mL
same,MIC SZ380 M. smegmatis,M. smegmatis SZ380,0.5 µg/mL
CCCC(O)C1OC(OC2C(N)CC(N)C(O)C2OC2OC(CO)C(OC3OC(CN)C(O)C(O)C3N)C2O)C(N)C(O)C1O (stereo not drawn) [DC143],MIC AG038 MRSA,MRSA,32 to 64 µg/mL
same,MIC AG039 MRSA AAC(6′)-I ANT(4′)-I,MRSA,>64 µg/mL
same,MIC AG042 MRSA AAC(6′)-I ANT(4′)-I APH(2′),MRSA,>64 µg/mL
same,MIC AG044 MRSA,MRSA,16 µg/mL
same,MIC pH430 WT,"E coli wild type; E. coli strain pH430, WT",4 μg/ml
same,MIC AG001 E. coli WT,E coli wild type,32 µg/mL
same,MIC AG055 E. coli WT,E coli wild type,32 µg/mL
same,MIC AG031 P. aer. APH(3′)-II,P aeruginosa,>64 µg/mL
same,MIC AG032 P. aer. APH(3′)-II,P aeruginosa,>64 µg/mL
same,"MIC AG036 ANT(4′,4′′)","[1]; E. coli strain AG036, ANT(4′,4′′)",64 µg/mL
same,MIC AG037 APH(3′)-III,"[1]; E. coli strain AG037, APH(3′)-III",>128 µg/mL
same,MIC AG103 armA,"[1]; E. coli strain AG103, armA",16 to 32 µg/mL
same,MIC pH421 APH(3)-I,"[1]; E. coli strain pH421, APH(3)-I",>128 μg/ml
same,MIC pH422 APH(3′)-II,"[1]; E. coli strain pH422, APH(3′)-II",>128 μg/ml
same,MIC pH423 APH(3′)-VI,"[1]; E. coli strain pH423, APH(3′)-VI",32-64 μg/ml
same,MIC pH432 ANT(4′),"[1]; E. coli strain pH432, ANT(4′)",4 μg/ml
same,MIC AG003 E. coli AAC(3)-II,[1],32 µg/mL
same,IC50,[2]; [10],0.16 µM
same,IC50,[9],93 µM
same,IC50,[3]; [11],259 µM
same,IC50,[4]; [12],328 µM
same,IC50,[5],66 µM
CC(=O)N[C@H]1[C@@H](O[C@H]2[C@H](O[C@@H]3O[C@H](CO)[C@@H](O[C@H]4O[C@@H](CN)[C@@H](O)[C@H](O)[C@H]4N)[C@H]3O)[C@@H](O)[C@H](N)C[C@@H]2N)O[C@H](CN)[C@@H](O)[C@@H]1O [DC-183],MIC AG038 MRSA,MRSA,>32 µg/mL
same,MIC AG039 MRSA AAC(6′)-I ANT(4′)-I,MRSA,>32 µg/mL
same,MIC AG042 MRSA AAC(6′)-I ANT(4′)-I APH(2′),MRSA,>32 µg/mL
same,MIC AG001 E. coli WT,E coli wild type,>32 µg/mL
same,MIC AG055 E. coli WT,E coli wild type,>32 µg/mL
same,MIC AG031 P. aer. APH(3′)-II,P aeruginosa,>32 µg/mL
same,MIC AG032 P. aer. APH(3′)-II,P aeruginosa,>32 µg/mL
same,MIC AG003 E. coli AAC(3)-II,[1],>32 µg/mL
same,IC50,[2]; [10],5.3 µM
same,IC50,[9],28 µM
same,Target specificity bacterial vs. Cytosolic,"[3]; relative target specificity, bacterial vs. human cytosolic",low
same,IC50,[3]; [11],147 µM
same,Target specificity bacterial vs. Mitochondrial,"[4]; relative target specificity, bacterial vs. human mitochondrial",low
same,IC50,[4]; [12],93 µM
same,IC50,[5],103 µM
